# Assays:
# human Plasma Kallikrein = human Plasma Kallikrein (Homo sapiens (Human), UniProt P03952); test: In vitro enzyme inhibition of human plasma kallikrein (PFR-AMC cleavage); assay type: biochemical; details: human plasma kallikrein, Pro-Phe-Arg-AMC substrate, 37° C.; read-out: hPK IC50
# Outline: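 Compound pre-incubated with human plasma kallikrein 5 min at 37° C in 50 mM Tris-HCl pH 7.5, 150 mM NaCl, 0.01% Triton X-100. Reaction started with PFR-AMC, cleavage read kinetically at 37° C every 43 s for 1 h.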
# kallikrein = kallikrein (Homo sapiens (Human), UniProt P03952); test: In vitro cellular assay (contact assay): kallikrein activity in ellagic acid-activated human plasma, substrate Z-FR-2-AMC; assay type: biochemical; details: human plasma activated with ellagic acid, Z-FR-2-AMC substrate, 37° C.; read-out: Contact Assay EC50
# kallikrein, sequence (P03952 20-638): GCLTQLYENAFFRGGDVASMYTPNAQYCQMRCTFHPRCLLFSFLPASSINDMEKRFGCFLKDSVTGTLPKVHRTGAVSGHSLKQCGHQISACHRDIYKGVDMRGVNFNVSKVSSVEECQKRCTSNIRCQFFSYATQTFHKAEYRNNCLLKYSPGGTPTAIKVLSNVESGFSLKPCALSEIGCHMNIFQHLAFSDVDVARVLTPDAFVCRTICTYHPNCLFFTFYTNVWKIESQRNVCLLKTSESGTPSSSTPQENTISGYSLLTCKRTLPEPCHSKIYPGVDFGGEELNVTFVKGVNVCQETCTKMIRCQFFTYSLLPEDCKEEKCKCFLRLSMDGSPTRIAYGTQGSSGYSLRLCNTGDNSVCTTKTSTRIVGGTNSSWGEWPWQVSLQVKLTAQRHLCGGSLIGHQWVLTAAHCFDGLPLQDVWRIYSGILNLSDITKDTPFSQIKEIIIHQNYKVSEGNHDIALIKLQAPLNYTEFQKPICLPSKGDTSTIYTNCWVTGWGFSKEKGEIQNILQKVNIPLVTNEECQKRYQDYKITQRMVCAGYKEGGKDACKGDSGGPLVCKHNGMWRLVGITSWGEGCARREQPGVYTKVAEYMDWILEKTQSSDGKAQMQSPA
# Experimental: The ability of the compounds disclosed herein to inhibit cellular kallikrein activity was quantified and the respective EC50 value was determined.
# All dilutions were prepared in an assay buffer comprising 50 mM Tris-HCl pH 7.2, 150 mM NaCl, and 0.01% Triton X-100.
# The ten solutions of the test compounds, prepared by serial dilution, were further diluted 50-fold in the assay buffer.
# Human plasma is thawed on ice and centrifuged for 15 min at 4° C. to remove platelets. A 1 mM stock solution of ellagic acid is diluted to 8 μM and mixed with human plasma, after removing platelets, at a ratio of 1:0.8.
# A 22.5 μL volume of the final mixture of human plasma and ellagic acid was added to a 96-well microwell plate and the plate was incubated for 15 min at 37° C.
# The CINH inhibitor at various concentrations, prepared by serial dilutions as described above, were added to the inhibitor control wells. […] Each CINH concentration is tested in duplicates.
# The test compounds at various concentrations, also prepared by serial dilutions as described above, are added to the test wells. […] Each test compound concentration was tested in duplicates.
# In addition to the inhibitor control and test wells, the 96 well assay plate includes positive control wells which contained the mixture of human plasma and ellagic acid without C1NH inhibitor or test compounds, and background wells which contained neither the mixture of human plasma and ellagic acid nor the test compounds. The total volume of liquid in positive control and background wells was brought up to 35 μL, using the assay buffer.
# The assay plate containing C1NH inhibitors and test compounds mixed with human plasma and ellagic acid and appropriate controls was incubated at 37° C. for 5 min. […] The reagents were mixed well by shaking the plate gently for 30 sec.
# The enzyme reaction was quantified by immediate kinetic reading of the assay plate using excitation/emission wavelengths of 330 nm/440 nm respectively. Fluorescence intensity was recorded for 60 min, using a time interval of 43 sec.
# The inhibition activity of the test compounds were evaluated using the IC50 values, calculated according to the dose-response curve of the test compounds, fitted using the “log(inhibitor)-response (variable slope)” equation in GraphPadPrism software (GraphPad Software, Inc.).
# The percentage inhibition was calculated using the following equation:
# [formula] where, Mean(BG) is the average value of the fluorescence intensity of the background wells and Mean(PC) is the average value of the fluorescence intensity of the positive control wells.
# Table 4 provides the EC50 values of various compounds disclosed herein.
# human Plasma Kallikrein, sequence (P03952 20-638): as above
smiles,measurement,setting,value
"Cc1cnc2ccc(Cc3cc(C(=O)NCc4ccc5c(N)nccc5c4)ccn3)cc2c1 [Example 142, N-((1-aminoisoquinolin-6-yl)methyl)-2-((3-methylquinolin-6-yl)methyl)isonicotinamide]",IC50,human Plasma Kallikrein,< 100 nM
same,EC50,kallikrein,< 100 nM
"Cc1cnc2ccc(Cc3cc(C(=O)NCc4cc5c(Cl)c[nH]c5cc4F)ccn3)cc2c1 [Example 143, N-((3-chloro-6-fluoro-1H-indol-5-yl)methyl)-2-((3-methylquinolin-6-yl)methyl)isonicotinamide]",IC50,human Plasma Kallikrein,< 100 nM
same,EC50,kallikrein,100 to 1000 nM
"Cc1cnc2ccc(Cc3cc(C(=O)NCc4c(C)cc(N)nc4C)ccn3)cc2c1 [Example 144, N-((6-amino-2,4-dimethylpyridin-3-yl)methyl)-2-((3-methylquinolin-6-yl)methyl)isonicotinamide]",IC50,human Plasma Kallikrein,< 100 nM
same,EC50,kallikrein,< 100 nM
"Cc1cc2cc(Cc3cc(C(=O)NCc4c(C)cc(N)nc4C)ccn3)ccc2cn1 [Example 145, N-((6-amino-2,4-dimethylpyridin-3-yl)methyl)-2-((3-methylisoquinolin-6-yl)methyl)isonicotinamide]",IC50,human Plasma Kallikrein,< 100 nM
same,EC50,kallikrein,< 100 nM
